pEC50, pIC50: −log10 of the molar value.
Assays:
[1] = test system: Human orthopneumovirus; assay: Antiviral activity against RSV A2 infected in A549 cells incubated for 3 days by cell titer glo-based luminescence assay; type: functional, organism-based; conditions: human respiratory syncytial virus, A2, A549, 72 h
[2] = Antiviral activity against RSV B-WST infected in Hep2 cells preincubated for 1 hr followed by RSV infection and measured after 3 days by ELISA method; type: functional, cell-based; conditions: human respiratory syncytial virus, HEp-2
[3] = test system: Human orthopneumovirus; assay: Antiviral activity against RSV A2 infected in Hep2 cells preincubated for 1 hr followed by RSV infection and measured after 3 days by ELISA method; type: functional, organism-based; conditions: human respiratory syncytial virus, A2, HEp-2
[4] = test system: Respiratory syncytial virus; assay: Antiviral activity against Respiratory syncytial virus; type: functional, organism-based; conditions: human respiratory syncytial virus
[5] = test system: Human orthopneumovirus; assay: Antiviral activity against RSV A2 infected in HAE-derived cells; type: functional, organism-based; conditions: human respiratory syncytial virus
[6] = test system: Respiratory syncytial virus; assay: Antiviral activity against Respiratory syncytial virus by CPE reduction assay; type: functional, organism-based; conditions: human respiratory syncytial virus
[7] = test system: Respiratory syncytial virus; assay: Antiviral activity against recombinant RSV infected in HeLa cells assessed as reduction in eGFP expression after 3 days by laser microscopic analysis; type: functional, organism-based; conditions: human respiratory syncytial virus, 72 h
[8] = test system: Human orthopneumovirus; assay: Antiviral activity against RSV A2 infected in Hep2 cells by CPE reduction assay; type: functional, organism-based; conditions: human respiratory syncytial virus, A2, HEp-2
[9] = Antiviral activity against RSV B-WST infected in Hep2 cells CPE reduction assay; type: functional, cell-based; conditions: human respiratory syncytial virus, HEp-2
[10] = Inhibition of Respiratory syncytial virus RNA-dependent RNA polymerase
[11] = Oral bioavailability in BALB/c mouse; type: ADME, organism-based; conditions: in vivo
[12] = test system: Human orthopneumovirus; assay: Antiviral activity against HRSV expressing m-cherry infected in Hep2 cells after 48 hrs post infection by fluorescence based assay; type: functional, organism-based; conditions: human respiratory syncytial virus, HEp-2, 48 h
[13] = Oral bioavailability in dog; type: ADME, organism-based, Canis lupus familiaris; conditions: in vivo
[14] = Oral bioavailability in rat; type: ADME, organism-based; conditions: in vivo
[15] = test system: Influenza A virus; assay: Antiviral activity against influenza A virus; type: functional, organism-based
[16] = test system: Human orthopneumovirus; assay: Antiviral activity against RSV type B; type: functional, organism-based; conditions: human respiratory syncytial virus
[17] = test system: Human orthopneumovirus; assay: Antiviral activity against RSV type A; type: functional, organism-based; conditions: human respiratory syncytial virus
[18] = test system: Hepatitis C virus; assay: Antiviral activity against Hepatitis C virus; type: functional, organism-based, Hepacivirus hominis
[19] = test system: Human respirovirus 3; assay: Antiviral activity against Human parainfluenza virus 3; type: functional, organism-based
[20] = Antiviral activity against RSV type A Memphis 37 infected in Hep2 cells assessed as reduction in virus-induced cytopathic effect after 5 days by resazurin dye based PCR analysis; type: functional, cell-based; conditions: human respiratory syncytial virus, Memphis 37, HEp-2, 120 h
[21] = Antiviral activity against RSV type A VAN1160 infected in Hep2 cells assessed as reduction in virus-induced cytopathic effect after 5 days by resazurin dye based PCR analysis; type: functional, cell-based; conditions: human respiratory syncytial virus, VAN1160, HEp-2, 120 h
[22] = Antiviral activity against RSV type A 492 infected in Hep2 cells assessed as reduction in virus-induced cytopathic effect after 5 days by resazurin dye based PCR analysis; type: functional, cell-based; conditions: human respiratory syncytial virus, 492, HEp-2, 120 h
[23] = Antiviral activity against RSV B-WST infected in Hep2 cells assessed as reduction in virus-induced cytopathic effect after 6 days by resazurin dye based PCR analysis; type: functional, cell-based; conditions: human respiratory syncytial virus, HEp-2, 144 h
[24] = Antiviral activity against RSV type A 1211 infected in Hep2 cells assessed as reduction in virus-induced cytopathic effect after 5 days by resazurin dye based PCR analysis; type: functional, cell-based; conditions: human respiratory syncytial virus, 1211, HEp-2, 120 h
[25] = test system: Human orthopneumovirus; assay: Antiviral activity against RSV A2 infected in Hep2 cells assessed as reduction in virus-induced cytopathic effect after 5 days by resazurin dye based PCR analysis; type: functional, organism-based; conditions: human respiratory syncytial virus, A2, HEp-2, 120 h
[26] = Antiviral activity against RSV type A 689 infected in Hep2 cells assessed as reduction in virus-induced cytopathic effect after 5 days by resazurin dye based PCR analysis; type: functional, cell-based; conditions: human respiratory syncytial virus, 689, HEp-2, 120 h
[27] = Antiviral activity against RSV type B 1276 infected in Hep2 cells assessed as reduction in virus-induced cytopathic effect after 5 days by resazurin dye based PCR analysis; type: functional; conditions: human respiratory syncytial virus, 1276, HEp-2, 120 h; pooled result: one value given for 5 cell lines, strains, targets or settings
[28] = test system: Human orthopneumovirus; assay: Antiviral activity against RSV A infected in HeLa cells; type: functional, organism-based; conditions: human respiratory syncytial virus, type A
[29] = Antiviral activity against RSV B infected in HeLa cells; type: functional, cell-based; conditions: human respiratory syncytial virus
[30] = Plasma clearance in Beagle dog at 2 mg/ml, iv or 1.2 mg/ml, po measured up to 24 hrs by LC-MS/MS analysis; type: ADME, organism-based, Canis lupus familiaris
[31] = test system: Human orthopneumovirus; assay: Antiviral activity against Respiratory syncytial virus A plaque reduction assay; type: functional, organism-based
[32] = Antiviral activity against Respiratory syncytial virus B plaque reduction assay; type: functional, Human respiratory syncytial virus B
[33] = Oral bioavailability in mouse; type: ADME, organism-based; conditions: in vivo

Work on O=c1n(Cc2nc(-c3nccs3)cn2CCCCO)c2cnccc2n1C1CC1 yielded a pEC50 [1] of 7.24.
With O=C(NC1CC1)c1cc2c(s1)-c1ccccc1N(C(=O)c1ccc(NC(=O)c3cccnc3N3CCC4(CC3)COC4)cc1)CC2 the pEC50 [2] was less than 4.30 and the pEC50 [3] was 8.00.
Cc1ccc(NS(C)(=O)=O)c(C(=O)N2CCCC[C@H]2c2cc3nc4c(c(N5CCOCC5)n3n2)CCCC4)c1 gave a pEC50 [4] of 9.25.
In the case of CC1(C(=O)N2CC3(C2)C(=O)N(Cc2nc4c(n2CCCC(F)(F)F)CCCC4)c2ccccc23)CC1, the pEC50 [1] was greater than 7.00.
With CNc1nc(N)nc2c1ncn2[C@@H]1O[C@](C)(CO[P@@](=O)(N[C@@H](C)C(=O)OC(C)C)Oc2ccccc2)[C@@H](O)[C@H]1F the pEC50 [5] was 10.28.
Work on CC(C)OC(=O)N1CCC2(CC1)C(=O)N(Cc1nc3cc(Cl)ccc3n1CCCC#N)c1cnccc12 yielded a pEC50 [6] of 10.62.
O=c1n(Cc2cc3cnccc3n2CCCC(F)(F)F)c2cnccc2n1CC(F)(F)F gave a pEC50 [7] of 9.60.
CC(C)CCn1c(Cn2c(=O)n(C3CCN(S(C)(=O)=O)CC3)c3ccccc32)nc(=O)c2ccccc21 gave a pEC50 [6] of 8.24.
CCc1cc(C(=O)N2CCc3sccc3[C@H]2C)nc2cc(-c3ccc(N4CC[C@H](C(=O)O)C4)cc3F)nn12 showed a pEC50 [4] of 8.56.
For O=c1n(Cc2cc3cc(Cl)ccc3n2CCCCO)c2cnccc2n1C1CC1, the pEC50 [7] was 8.70.
Cc1cc2n(Cc3nc(OCC4CCOC4)c4cc(C#N)ccc4n3)c(=O)c3ccccc3n2n1 (configuration not stated) showed a pEC50 [6] of 8.55.
CC(C)CCn1c(CN2C(=O)C3(CC3)c3ccccc32)nc2cc(CN)ccc21 showed a pEC50 [4] of 7.51.
For Cc1cn(Cc2nc3ccccc3s2)c(=O)n(Cc2ccc(-c3csnn3)cc2)c1=O, the pEC50 [8] was 5.80 and the pEC50 [9] was less than 4.30.
For O=C(NC1CC1)c1cc2c(s1)-c1ccccc1N(C(=O)c1ccc(NC(=O)c3ccccc3-c3ccccc3)cc1)CC2, the pEC50 [2] was less than 4.70 and the pEC50 [3] was 6.12.
Work on COC(=O)N1CC2(C1)C(=O)N(Cc1ncc3cc(C)ccc3c1-c1cncnc1)c1ccccc12 yielded a pEC50 [6] of 9.70.
COc1cc(C(=O)NC[C@@](O)(c2cc3c(c(-c4ccc(F)cc4)n2)NC[C@@]3(C)N)C(F)(F)F)ccc1OCCO gave a pIC50 [10] greater than 6.00 and a pEC50 [4] greater than 6.00.
For Cc1cccc(-c2ccc([C@@H]3[C@@H](CO)N4CCCCN(S(=O)(=O)c5cn(C)cn5)C[C@@H]34)cc2)c1, the pEC50 [8] was 5.48 and the pEC50 [9] was less than 4.30.
For NC1CCN(c2ncc(CN3C(=O)C4(CC4)c4ccc(F)cc43)c(NCCCO)n2)C1 (configuration not stated), the pEC50 [1] was 7.47.
CCc1ccc(NS(C)(=O)=O)c(C(=O)N(C)[C@@H](CC)c2cc3nc(N4CC[C@H](N)C4)c(C)cn3n2)c1 gave a pEC50 [4] of 9.82.
With CC(C)OC(=O)N1CC2(C1)C(=O)N(Cc1nc3cc(Br)ccc3n1CCCO)c1ccccc12 the bioavailability [11] was 72% and the pEC50 [6] was 9.10.
c1coc(-c2nn3c(Cn4cnc5ccccc54)nnc3s2)c1 gave a pEC50 [4] of 6.18.
For Cc1cccc2ncnc(N3CCCC[C@H]3c3cc4nc(N5CCC5)cc(N5CCOCC5)n4n3)c12, the pEC50 [4] was 8.00.
Work on O=C1N(Cc2nc3cc(Cl)ccc3n2C2CCS(=O)(=O)C2)c2cnccc2C12CC2 (configuration not stated) yielded a pEC50 [6] of 8.72.
N#Cc1ccc(-c2ccc3c(c2)[C@H]2[C@H](CCN2C(=O)c2ccccc2F)[C@H](CO)N3)cc1 gave a pEC50 [8] of 5.85 and a pEC50 [9] of 5.17.
O=C(O)c1cc(C(=O)O)n(Cc2ccc(Cl)cc2Cl)n1 showed a pEC50 [12] of 3.91.
For Cc1ccc([C@]23Cn4cccc4C(=O)N2CCN3C(=O)c2conc2C)cn1, the pEC50 [5] was 8.08, the bioavailability [13] was 100% and the bioavailability [14] was 59%.
With Nc1ccn([C@@H]2O[C@@](CO)(CCl)[C@@H](O)[C@H]2F)c(=O)n1 [ALS-8112] the pEC50 [15] was less than 4.00, the pEC50 [16] was 6.35 to 7.05 and the pEC50 [17] was 6.35 to 7.05. For the same compound, the pEC50 [18] was less than 4.00 and the pEC50 [19] was 5.89.
In the case of Cc1cnc(N2CC3(CCOCC3)C2)c(C(=O)Nc2ccc(C(=O)N3CCc4cc(C(=O)Nc5c(C)cccc5F)sc4-c4ccccc43)cc2)c1 [PC-786], the pEC50 [20] was 9.34, the pEC50 [21] was 9.34 and the pEC50 [22] was 9.34. The pEC50 [23] was 7.56, the pEC50 [24] was 9.34 and the pEC50 [25] was 9.30. It also gave a pEC50 [26] of 9.34 and a pEC50 [27] of 7.69.
For CS(=O)(=O)CCCn1c(Cn2c(=O)n(CC(F)(F)F)c3ccncc32)cc2cc(Cl)ccc21 [RILEMATOVIR], the pEC50 [28] was 7.70 to 9.70, the pEC50 [29] was 7.70 to 9.70 and the pEC50 [7] was 9.30 to 9.34. The clearance [30] was 9 mL/min/kg.
Work on NCc1ccc2c(c1)nc(CN1C(=O)C3(CC3)c3ccc(F)cc31)n2CCCC(F)(F)F [SISUNATOVIR] yielded a pEC50 [31] of 8.85 to 10.00, a bioavailability [13] of 63% and a pEC50 [32] of 8.85 to 10.00. It also gave a bioavailability [33] of 46%.
O=C1Nc2ccccc2C(c2ccccc2)=N[C@@H]1Nc1nnc(-c2ncc(C(F)(F)F)cc2N2CCOCC2)o1 [ZELICAPAVIR] gave a pEC50 [4] greater than 6.40.

Reference: ChEMBL document CHEMBL4376802, “State of the Art in Respiratory Syncytial Virus Drug Discovery and Development” (J Med Chem, 2019)
